# Measurements from patent US5948793A, “3-pyridyloxymethyl heterocyclic ether compounds useful in controlling neurotransmitter release” (Abbott Laboratories, priority 1995, dated 1999).
# Where a name gives a salt, the structure may show the parent alone. Read-outs that look alike come from different tables or passages of the source.
# Tests used:
# [1] = tested on: nAChR evoked release of [3H]-dopamine, rat striatal slices; assay: Striatal dopamine release assay (nAChR evoked release of [3H]-dopamine from superfused rat striatal slices); assay type: cell-based, rat (male Sprague-Dawley); conditions: Table 1, relative to 100 nM (-)-nicotine
# Procedure: The protocol for this procedure follows below.
# A. Protocol for Determination of Striatal Dopamine Release.
# nAChR evoked release of [ring-2,5,6-^3 H]-dopamine (24.4 Ci/mmol) was measured in superfused rat striatal slices. Striata were dissected from two male Sprague-Dawley rats per experiment and sliced 0.35×0.25 mm by a McIlwain Tissue Chopper (Brinkman Instrument Co., Westbury, N.Y.). After two washes with Krebs-HEPES buffer (137 mM NaCl, 4.7 mM KCl, 1 mM MgSO4, 2.5 mM CaCl2, 1.25 mM NaH2 PO4, 10 mM glucose, 15 mM HEPES-NaOH, pH 7.4, containing 10 μM pargyline and 10 μM ascorbic acid), slices were preincubated for 10 minutes at 37° C. under 95%/5% O2 /CO2. After replacing the buffer, slices were labeled with 100 nM [^3 H]-dopamine for 25 min in Krebs-HEPES at 37° C. Aliquots of slices were placed in 18 superfusion chambers of a Brandel SP2000 superfusion apparatus (Brandel, Gaithersberg, Md.). Following 47 minutes of washout, slices were exposed to agonist at various concentrations for 4 minutes. Antagonists or inhibitors, when present were introduced 4 minutes prior to and during agonist exposure. Collected fractions were counted in 5 mL of Ecolume. Tissue was recovered from superfusion chambers, solubilized with 1 mL of Solvable™ (DuPont-NEN) and counted in 15 mL of Ecolume. Fractional release of [^3 H]-dopamine was calculated from radioactivity above baseline as a fraction of total radioactivity.
# [2] = target: neuronal nicotinic cholinergic channel receptors; assay: [3H]-cytisine displacement binding to neuronal nicotinic cholinergic channel receptors; assay type: rat (crude synaptic membranes from whole rat brain); conditions: read-out: Receptor Binding Ki
# Procedure: B. Protocol For Determination of Nicotinic Cholinergic Channel Receptor Binding Potencies of Ligands
# Binding of [^3 H]-cytisine ([^3 H]-CYT) to nicotinic receptors was accomplished using crude synaptic membrane preparations from whole rat brain (Pabreza et al., Molecular Pharmaol., 1990, 39:9). Washed membranes were stored at -80° C. prior to use. Frozen aliquots were slowly thawed and resuspended in 20 volumes of buffer (containing: 120 mM NaCl, 5 mM KCl, 2 mM MgCl2, 2 mM CaCl2 and 50 mM Tris-Cl, pH 7.4 @4° C.). After centrifuging at 20,000×g for 15 minutes, the pellets were resuspended in 30 volumes of buffer. Homogenate (containing […]) was added to triplicate tubes containing concentrations of test compound and [^3 H]-CYT (1.25 nM) in a final volume of 500 μL. Samples were incubated for 60 minutes at 4° C., then rapidly filtered through Whatman GF/B filters presoaked in 0.5% polyethylimine using 3×4 mL of ice-cold buffer. The filters are counted in 4 mL of Ecolume® (ICN). […] Alternately, data were expressed as a percentage of the total specific binding.
# [3] = example concentration ** = 1 μM
# [4] = example concentration * = 10 μM
# [5] = Table 2, [3H]-cytisine 1.25 nM, 60 min at 4° C.
SMILES,"Ki [2, 5] [nM]",other results
"CN1CCC[C@H]1COc1cncc(Cl)c1.Cl.Cl [Example 16, 5-chloro-3-((1-methyl-2-(S)-pyrrolidinyl)methoxy)pyridine dihydrochloride]",,"Dopamine Release relative to Nicotine [1, 3]: 1.0"
"Cc1ccc(OC[C@H]2CCCN2)cn1.Cl.Cl [Example 37, 6-methyl-3-(2-(R)-pyrrolidinylmethoxy)pyridine dihydrochloride]",,"Dopamine Release relative to Nicotine [1, 4]: 0.8; Ki [2]: 0.5 nM"
"CN1CC[C@H]1COc1cccnc1.Cl.Cl [Example 10, 3-((1-methyl-2-(S)-azetidinyl)methoxy)pyridine dihydrochloride]",,"Dopamine Release relative to Nicotine [1, 4]: 1.0; Ki [2]: 0.25 nM"
"CN1CCC[C@@H]1COc1cccnc1.Cl [Example 1, 3-((1-methyl-2-(R)-pyrrolidinyl)methoxy)pyridine hydrochloride]",,"Dopamine Release relative to Nicotine [1, 4]: 0.08; Ki ([2]; Table 1, [3H]-cytisine 1.25 nM, 60 min at 4° C.): 23 nM"
"O=C(O)/C=C/C(=O)O.c1cncc(OC[C@@H]2CCCN2)c1 [Example 14, 3-(2-(S)-pyrrolidinylmethoxy)pyridine fumarate]",,"Dopamine Release relative to Nicotine [1, 3]: 1.0; Ki [2]: 0.14 nM"
"CN1CCC[C@H]1COc1cccnc1.O=C(O)/C=C/C(=O)O [Example 4, 3-((1-methyl-2-(S)-pyrrolidinyl)methoxy)pyridine fumarate]",,"Dopamine Release relative to Nicotine [1, 4]: 1.0; Ki [2]: 0.2 nM"
"CN1CC[C@H]1COc1cncc(Br)c1 [Example 68, 3-((1-methyl-2-(S)-azetidinyl)methoxy)-5-bromopyridine dihydrochloride]",4.5,
"CCN1CCC[C@H]1COc1cccnc1.Cl.Cl [Example 38, 3-((1-ethyl-2(S)-pyrrolidinyl)methoxy)pyridine dihydrochloride]",,"Dopamine Release relative to Nicotine [1, 4]: 0.6; Ki [2]: 13 nM"
"Clc1ccc(OC[C@H]2CCCN2)cn1 [Example 58, 3-(2-(R)-pyrrolidinylmethoxy)-6-chloropridine hydrochloride]",5.3,
"c1cncc(OC[C@H]2CCCN2)c1 [Example 2, 3-(2-(R)-pyrrolidinylmethoxy)pyridine dihydrochloride]",,Ki [2]: 0.17 nM
"CN1C[C@@H](F)C[C@H]1COc1cccnc1 [Example 78, 3-((cis-4-fluoro-1-methyl-2-(S)-pyrrolidinyl)methoxy)pyridine dihydrochloride]",5.77,
"CCc1cncc(OC[C@@H]2CCCN2C)c1 [Example 75, 5-ethyl-3-(1-methyl-2-(S)-pyrrolidinylmethoxy)pyridine dihydrochloride]",0.32,
"Cc1ncccc1OC[C@@H]1CCN1C [Example 30, 2-Methyl-3-((1-methyl-2-(S)-azetidinyl)methoxy)pyridine dihydrochloride]",129,
"c1ccc2ncc(OC[C@H]3CCCN3)cc2c1 [Example 76, 3-(2-(R)-pyrrolidinylmethoxy)quinoline dihydrochloride]",12.8,
"CN1CCC[C@H]1COc1cnccn1 [Example 3, 2-((1-methyl-2-(S)-pyrrolidinyl)methoxy)pyrazine fumarate]",20,
"c1cnc(OC[C@@H]2CCN2)cn1 [Example 7, 2-(2-(S)-azetidinylmethoxy)pyrazine dihydrochloride]",0.44,
"CN1CCC[C@H]1COc1cncc(N)c1 [Example 94, 5-Amino-3-(1-methyl-2(S)-pyrrolidinylmethoxy)pyridine hydrochloride]",0.5,
"Cc1ncccc1OC[C@H]1CCN1 [Example 81, 2-methyl-3-(2-(R)-azetidinylmethoxy)pyridine dihydrochloride]",,"Ki ([2]; Table 2, [3H]-cytisine 1.25 nM, 60 min at 4° C., dihydrochloride): 9.3 nM"
"Clc1cncc(OC[C@@H]2CCCN2)c1 [Example 15, 5-chloro-3-(2-(S)-pyrrolidinylmethoxy)pyridine dihydrochloride]",0.13,

SMILES,"Ki [2, 5] [nM]",other results
"Cc1ccncc1OC[C@@H]1CCN1 [Example 64, 4methyl-3-(2-(S)-azetidinylmethoxy)pyridine dihydrochloride]",224,
"CCC[C@H]1CCN(C)[C@H]1COc1cccnc1 (relative stereo) [Example 60, 3-((cis-1-methyl-3-propyl-2-pyrrolidinyl)methoxy)pyridine dihydrochloride]",51,
"CN1CCC[C@@H]1COc1ccc(Cl)nc1 [Example 51, 3-((1-methyl-2-(R)-pyrrolidinyl)methoxy-6-chloropyridinedihydrochloride]",4.5,
"CN1CC[C@H]1COc1cnc(Cl)c(Cl)c1 [Example 110, 5,6-Dichloro-3-(1-methyl-2-(S)-azetidinylmethoxy)pyridine hydrochloride]",0.75,
"C[C@@H]1CC[C@@H](COc2cccnc2)N1C [Example 89, 3-((trans-1,5-dimethyl-2-(S)-pyrrolidinyl)methoxy)pyridine hydrochloride]",91.2,
"CN1C[C@@H](CF)C[C@H]1COc1cccnc1 [Example 92, 3-((cis-4-fluoromethyl-1-methyl-2-(S)-pyrrolidinyl)methoxy)pyridine dihydrochloride]",141,
"CN1C[C@@H](CO)C[C@H]1COc1cccnc1 [Example 48, 3-((cis-4-hydroxymethyl-1-methyl-2-(S)-pyrrolidinyl)methoxy)pyridine dihydrochloride]",30,
"CN1C[C@@H](C#N)C[C@H]1COc1cccnc1 [Example 90, 3-((cis-4-cyano-1-methyl-2(S)-pyrrolidinyl)methoxy)pyridine dihydrochloride]",18.4,
"Brc1cncc(OC[C@@H]2CCN2)c1 [Example 67, 3-(2-(S)-azetidinylmethoxy)-5-bromopyridine dihydrochloride]",0.2,
"CN1CC[C@@H]1COc1cccnc1 [Example 63, 3-((1-methyl-2-(R)-azetidinyl)methoxy)pyridine dihydrochloride]",1.4,
"Clc1cncc(OC[C@@H]2CCN2)c1 [Example 39, 5-chloro-3-(2-(S)-azetidinylmethoxy)pyridine dihydrochloride]",0.04,
"CN1CCC[C@@H]1COc1cncc(C(F)(F)F)c1 [Example 54, 3-((1-methyl-2-(R)-pyrrolidinyl)methoxy)-5-trifluoromethylpyridine hydrochloride]",78,
"c1cncc(OC[C@H]2CCN2)c1 [Example 62, 3-(2-(R)-azetidinylmethoxy)pyridine dihydrochloride]",0.5,
"CN1CCC[C@H]1COc1cnccc1Br [Example 21, 4-bromo-3-((1-methyl-2-(S)-pyrrolidinyl)methoxy)pyridine dihydrochloride]",,Ki [2]: 23 nM
"CCCCc1cncc(OC[C@@H]2CCCN2C)c1 [Example 71, 5-n-butyl-3-((1-methyl-2-(S)-pyrrolidinyl)methoxy)pyridine dihydrochloride]",0.1,
"CN1CCC[C@H]1COc1ccc(Cl)nn1 [Example 12, 3-((1-methyl-2-(S)-pyrrolidinyl)methoxy-6-chloropyridazine fumarate]",,Ki [2]: 29 nM
"Brc1cncc(OC[C@@H]2CCCN2)c1 [Example 65, 5-bromo-3-(2-(S)-pyrrolidinylmethoxy)pyridine dihydrochloride]",0.6,
"Clc1cc(OC[C@@H]2CCN2)cnc1Cl [Example 109, 5,6-Dichloro-3-(2-(S)-azetidinylmethoxy)pyridine hydrochloride]",0.024,
"Cc1ccc(OC[C@H]2CCCN2C)cn1 [Example 36, 6-methyl-3-((1-methyl-2-(R)-pyrrolidinyl)methoxy)pyridine dihydrochloride]",,Ki [2]: 26 nM
